Reference: US12384753B2, “17-beta-hydroxysteroid dehydrogenase type 13 inhibitors and methods of use thereof” (Enanta Pharmaceuticals, Inc., priority 2021, dated 2025)

Target: Recombinant human HSD17B13 (Homo sapiens (Human), UniProt Q7Z5P4)
Assay: HSD17B13 rapid-fire mass spectrometry assay (RF/MS assay)
Type: biochemical
Conditions: inhibition of HSD17B13; LTB4 10 μM, NAD+ 0.5 mM, RT 3 h; IC50 ranges A-E
In short: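 Sf9-expressed human HSD17B13 (80 nM) with 10 μM LTB4 and 0.5 mM NAD+, incubated with compound (0–100 μM) for 3 h at RT in Tris pH 7.5/BSA/Tween-20. After formic acid quench, LTB4 conversion to 12-oxo-LTB4 measured by RapidFire MS/MS. IC50 from normalised residual activity, duplicates.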

Chain of Recombinant human HSD17B13 (Q7Z5P4 20-300): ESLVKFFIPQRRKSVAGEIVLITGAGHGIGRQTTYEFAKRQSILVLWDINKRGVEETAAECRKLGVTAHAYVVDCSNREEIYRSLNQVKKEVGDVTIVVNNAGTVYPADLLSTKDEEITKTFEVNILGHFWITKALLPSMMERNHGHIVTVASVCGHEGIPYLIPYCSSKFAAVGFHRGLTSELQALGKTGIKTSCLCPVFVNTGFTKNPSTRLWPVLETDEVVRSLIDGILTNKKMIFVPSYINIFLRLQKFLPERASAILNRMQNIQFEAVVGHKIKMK

| SMILES | IC50 |
| --- | --- |
| COc1cc(C(=O)O)ccc1NS(=O)(=O)c1csc(N2CCCC(c3ccccc3)C2)n1 (stereo not shown) [Example 269] | 0.1 to 0.5 µM |
| COc1cc(C(=O)O)ccc1NS(=O)(=O)c1csc(N2CCN(c3ccc(C(F)(F)F)cc3)CC2)n1 [Example 272] | 0.1 to 0.5 µM |
| COc1cc(C(=O)O)ccc1NS(=O)(=O)c1csc(N2CCCC(NCc3ccccc3)C2)n1 (stereo not shown) [Example 273] | 1 to 100 µM |
| COc1cc(C(=O)O)ccc1NS(=O)(=O)c1csc(N2CCCC(Cc3ccc(C)cc3)C2)n1 (stereo not shown) [Example 274] | 0.5 to 1 µM |
| COc1ccc(CC2CCCN(c3nc(S(=O)(=O)Nc4ccc(C(=O)O)cc4OC)cs3)C2)cc1 (stereo not shown) [Example 275] | 1 to 100 µM |
| COc1cc(C(=O)O)ccc1NS(=O)(=O)c1csc(N2CCCC(Oc3ccccc3)C2)n1 (stereo not shown) [Example 276] | 1 to 100 µM |
| COc1cc(C(=O)O)ccc1NS(=O)(=O)c1csc(N2CCN(c3ccc(C)cc3)CC2)n1 [Example 278] | 1 to 100 µM |
| COc1cc(C(=O)O)ccc1NS(=O)(=O)c1csc(-c2ccc(-c3ccc(OC(F)(F)F)cc3)cc2)n1 [Example 280] | 0.1 to 0.5 µM |
| COc1cc(C(=O)O)ccc1NS(=O)(=O)c1csc(-c2ccc(C3CCCCC3)cc2)n1 [Example 281, 4-((2-(4-cyclohexylphenyl)thiazole)-4-sulfonamido)-3-methoxybenzoic acid] | 0.1 to 0.5 µM |
| COc1cc(C(=O)O)ccc1NS(=O)(=O)c1csc(N2CCN(c3cccc(OC(F)(F)F)c3)CC2)n1 [Example 282] | 0.1 to 0.5 µM |
| COc1cc(C(=O)O)ccc1NS(=O)(=O)c1csc(-c2ccc(N3CCCCC3)cc2)n1 [Example 284] | 0.1 to 0.5 µM |
| COc1cc(C(=O)O)ccc1NS(=O)(=O)c1csc(N2CCN(c3ccc(Br)cc3)CC2)n1 [Example 285] | 1 to 100 µM |
| COc1cc(C(=O)O)ccc1NS(=O)(=O)c1csc(N2CCN(c3ccc(-c4ccccc4)cc3)CC2)n1 [Example 288] | 0.1 to 0.5 µM |
| COc1cc(C(=O)O)ccc1NS(=O)(=O)c1csc(N2C[C@@H]3C[C@H]2CN3c2ccccc2)n1 [Example 289] | 0.5 to 1 µM |
| COc1cc(C(=O)O)ccc1NS(=O)(=O)c1csc(N2CCN(c3ccc(N(C)C)cc3)CC2)n1 [Example 291] | 1 to 100 µM |
| COc1cc(C(=O)O)ccc1NS(=O)(=O)c1csc(N2CCN(C(=O)OCc3ccccc3)CC2)n1 [Example 294] | 0.1 to 0.5 µM |
| COc1cc(C(=O)O)ccc1NS(=O)(=O)c1csc(-c2ccc(C(=O)c3ccccc3)cc2)n1 [Example 297] | 0.5 to 1 µM |
| COc1cc(C(=O)O)ccc1NS(=O)(=O)c1ccc(-c2csc(C)n2)cc1 [Example 298] | 1 to 100 µM |
| COc1cc(C(=O)O)ccc1NS(=O)(=O)c1csc(-c2ccc(-c3ccccc3)nc2)n1 [Example 299] | 1 to 100 µM |
| COc1cc(C(=O)O)ccc1NS(=O)(=O)c1csc(-c2ccc(C3CCCC3)cc2)n1 [Example 300] | 0.5 to 1 µM |
| COc1cc(C(=O)O)ccc1NS(=O)(=O)c1csc(-c2ccc(-c3ccccc3)cc2)n1 [Example 301] | 0.5 to 1 µM |
| COc1cc(C(=O)O)ccc1NS(=O)(=O)c1csc(-c2ccc(-c3ccccc3)c(F)c2)n1 [Example 302] | 0.1 to 0.5 µM |

| SMILES | IC50 |
| --- | --- |
| COc1cc(C(=O)O)ccc1NS(=O)(=O)c1csc(-c2ccc(N3CCOCC3)cc2)n1 [Example 303] | 1 to 100 µM |
| COc1cc(C(=O)O)ccc1NS(=O)(=O)c1csc(N2CCN(C(=O)OC(C)(C)C)CC2)n1 [Example 305, 4-((2-(4-(tert-butoxycarbonyl)piperazin-1-yl)thiazole)-4-sulfonamido)-3-methoxybenzoic acid] | 1 to 100 µM |
| COc1cc(C(=O)O)ccc1NS(=O)(=O)c1nc(-c2ccc(F)cc2)sc1-c1ccccc1 [Example 306] | 1 to 100 µM |
| COc1cc(C(=O)O)ccc1NS(=O)(=O)c1csc(N2CCN(C(=O)OCC3CCCCC3)CC2)n1 [Example 307, 4-((2-(4-((cyclohexylmethoxy)carbonyl)piperazin-1-yl)thiazole)-4-sulfonamido)-3-methoxybenzoic acid] | 0.5 to 1 µM |
| COc1cc(C(=O)O)ccc1NS(=O)(=O)c1csc(N2CCN(Cc3ccc(OC(F)(F)F)cc3)CC2)n1 [Example 308] | 0.1 to 0.5 µM |
| COc1cc(C(=O)O)ccc1NS(=O)(=O)c1csc(N2CCN(C(=O)OC(C)C)CC2)n1 [Example 309] | 1 to 100 µM |
| COc1cc(C(=O)O)ccc1NS(=O)(=O)N1CCC(c2ccccc2)CC1 [Example 310] | 1 to 100 µM |
| COc1cc(C(=O)O)ccc1NS(=O)(=O)c1ccc(-c2ccc(F)cc2)cc1 [Example 316] | 0.1 to 0.5 µM |
| COc1cc(C(=O)O)ccc1NS(=O)(=O)N1CCN(c2ccc(OC(F)(F)F)cc2)C(=O)C1 [Example 317] | 1 to 100 µM |
| COc1cc(C(=O)O)ccc1NS(=O)(=O)C1CCN(c2ncccn2)CC1 [Example 318] | 1 to 100 µM |
| COc1cc(C(=O)O)ccc1NS(=O)(=O)c1cccc(-c2ccc(F)cc2)c1 [Example 319] | 1 to 100 µM |
| COc1cc(C(=O)O)ccc1NS(=O)(=O)N1CCN(c2cccc(-c3ccccc3)c2)CC1 [Example 321] | 1 to 100 µM |
| COc1cc(C(=O)O)ccc1NS(=O)(=O)c1csc(-c2ccc(C(=O)O)cc2OC)n1 [Example 322] | 1 to 100 µM |
| COc1cc(C(=O)O)ccc1NS(=O)(=O)c1ccc2sc(-c3ccc(F)cc3)nc2c1 [Example 323] | 1 to 100 µM |
| COc1cc(C(=O)O)ccc1NS(=O)(=O)c1ccc(-c2ccc(C3CCCCC3)cc2)cc1OC(F)(F)F [Example 325] | 1 to 100 µM |
| COc1cc(C(=O)O)ccc1NS(=O)(=O)c1ccc(-c2ccc(C3CCCCC3)cc2)c(F)c1 [Example 326, 4-((4′-cyclohexyl-2-fluoro-[1,1′-biphenyl])-4-sulfonamido)-3-methoxybenzoic acid] | 0.1 to 0.5 µM |
| COc1cc(C(=O)O)ccc1NS(=O)(=O)Nc1ccc(C(=O)O)cc1OC [Example 327] | 1 to 100 µM |
| COc1cc(C(=O)O)ccc1NS(=O)(=O)Nc1nc2ccc(-c3ccc(F)cc3)cc2s1 [Example 329] | 1 to 100 µM |
| COc1cc(C(=O)O)ccc1NS(=O)(=O)N1C[C@H]2CN(C(=O)OC(C)(C)C)C[C@H]2C1 [Example 331, 4-(((3aR,6aS)-5-(tert-butoxycarbonyl)octahydropyrrolo[3,4-c]pyrrole)-2-sulfonamido)-3-methoxybenzoic acid] | 1 to 100 µM |
| COc1cc(C(=O)O)ccc1NS(=O)(=O)c1ccc(-c2cnc(-c3ccccc3)s2)c(F)c1 [Example 332] | 0.1 to 0.5 µM |
| COc1cc(C(=O)O)ccc1NS(=O)(=O)c1ccc(-c2ccc(F)cc2)cc1F [Example 333] | 0.1 to 0.5 µM |
| COc1cc(C(=O)O)ccc1NS(=O)(=O)c1csc(-c2ccc(C3CCC(C)(C)CC3)cc2)n1 [Example 336] | < 0.1 µM |

Other lines, results leading:

| IC50 | SMILES |
| --- | --- |
| 0.1 to 0.5 µM | COc1cc(C(=O)O)ccc1NS(=O)(=O)c1csc(N2CCCCC2c2ccccc2)n1 (stereo not shown) [Example 270] |
| 0.1 to 0.5 µM | COc1cc(C(=O)O)ccc1NS(=O)(=O)c1csc(N2CCN(c3ccc(OC(F)(F)F)cc3)CC2)n1 [Example 271] |
| 1 to 100 µM | COc1cc(C(=O)O)ccc1NS(=O)(=O)c1csc(N2CCCC(CCc3ccccc3)C2)n1 (stereo not shown) [Example 277] |
| 1 to 100 µM | COc1cc(C(=O)O)ccc1NS(=O)(=O)c1csc(N2CCC[C@@H](Cc3ccc(F)cc3)C2)n1 [Example 279] |
| 0.1 to 0.5 µM | COc1cc(C(=O)O)ccc1NS(=O)(=O)c1csc(N2CCCC(Cc3ccc(C(F)(F)F)cc3)C2)n1 (stereo not shown) [Example 283] |
| 0.5 to 1 µM | COc1cc(C(=O)O)ccc1NS(=O)(=O)c1csc(N2CCCC(C(=O)c3ccccc3)C2)n1 (stereo not shown) [Example 286] |
| 1 to 100 µM | COc1cc(C(=O)O)ccc1NS(=O)(=O)c1csc(N2CCN(C(=O)c3ccccc3)CC2)n1 [Example 287] |
| 1 to 100 µM | COc1cc(C(=O)O)ccc1NS(=O)(=O)c1csc(N2CCN(S(=O)(=O)c3ccc(C)cc3)CC2)n1 [Example 290] |
| 1 to 100 µM | COc1cc(C(=O)O)ccc1NS(=O)(=O)c1csc(N2CCCC(c3ccc(F)cc3)C2)n1 (stereo not shown) [Example 292] |
| 1 to 100 µM | COc1cc(C(=O)O)ccc1NS(=O)(=O)c1csc(N2CCCC(c3ccc(C(F)(F)F)cc3)C2)n1 (stereo not shown) [Example 293] |
| 1 to 100 µM | COc1cc(C(=O)O)ccc1NS(=O)(=O)c1csc(N2CCCC(C(C)c3ccccc3)C2)n1 (stereo not shown) [Example 295] |
| 1 to 100 µM | COc1cc(C(=O)O)ccc1NS(=O)(=O)c1csc(-c2ccc(-c3ccc(F)cc3)cc2)n1 [Example 296] |
| 0.5 to 1 µM | COc1cc(C(=O)O)ccc1NS(=O)(=O)c1csc(-c2ccc(-c3ccccc3)cc2F)n1 [Example 304] |
| 1 to 100 µM | COc1cc(C(=O)O)ccc1NS(=O)(=O)N1CCC(c2ccccn2)CC1 [Example 311] |
| 1 to 100 µM | COc1cc(C(=O)O)ccc1NS(=O)(=O)N1CCN(c2ccccc2)CC1 [Example 312] |
| 1 to 100 µM | COc1cc(C(=O)O)ccc1NS(=O)(=O)N1CCC(c2nnn[nH]2)CC1 [Example 313] |
| > 100 µM | COc1cc(C(=O)O)ccc1NS(=O)(=O)N1CCN(c2nccs2)CC1 [Example 314] |
| 1 to 100 µM | COc1cc(C(=O)O)ccc1NS(=O)(=O)N1CCN(C2CCCC2)CC1 [Example 315] |
| 1 to 100 µM | COc1cc(C(=O)O)ccc1NS(=O)(=O)N1CCCC(Oc2ccccc2)C1 (stereo not shown) [Example 320, 3-methoxy-4-((3-phenoxypiperidine)-1-sulfonamido)benzoic acid] |
| 0.1 to 0.5 µM | COc1cc(C(=O)O)ccc1NS(=O)(=O)c1ccc(-c2ccc(F)cc2)c(OC)c1 [Example 324] |
| 1 to 100 µM | COc1cc(C(=O)O)ccc1NS(=O)(=O)Nc1ccc2nc(-c3ccc(F)cc3)sc2c1 [Example 328, 4-((N-(2-(4-fluorophenyl)benzo[d]thiazol-6-yl)sulfamoyl)amino)-3-methoxybenzoic acid] |
| 0.1 to 0.5 µM | COc1cc(C(=O)O)ccc1NS(=O)(=O)N1Cc2ccc(-c3ccc(F)cc3)cc2C1 [Example 334] |
| < 0.1 µM | COc1cc(C(=O)O)ccc1NS(=O)(=O)c1ccc(C#CC2CCCC2)c(F)c1 [Example 335, 4-((4-(cyclopentylethynyl)-3-fluorophenyl)sulfonamido)-3-methoxybenzoic acid] |
